{
  "source": "patent US7625926B2",
  "about": "“P-glycoprotein inhibitor, method for preparing the same and pharmaceutical composition comprising the same” (Hanmi Pharm. Co., Ltd, priority 2003, dated 2009)",
  "test_system": "MCF-7/Dox cell, which is MCF-7 expressing p-glycoprotein",
  "conditions": "enhancement of anticancer activity of paclitaxel against MCF7/Dox; ED50 of paclitaxel alone / ED50 with 50 nM test compound",
  "protocol": "The cells were subcultured in 5% FBS (fetal bovine serum)/RPMI1640 medium supplemented with glutamine 2 mmol, sodium bicarbonate 3.7 g/L and gentamicin 10 mg/L at 37° C. in 5% CO2 incubator under 100% humidity, and collected using a 0.25% trypsin solution containing 3 mM 1,2-cyclohenxandiamine tetraacetic acid.\nThe collected cells were plated on a 96 well flat-bottomed plate at a density of 2×10^3 cells/well, and incubated in the same medium for 24 hours. Paclitaxel, an anticancer agent, was diluted with the same medium to obtain 10^−11˜10^−6 M test solutions. […] After incubating for 72 hours, the culture medium was removed, each well was treated with 10% trichloroacetic acid for 1 hour to fix the cells, washed with water, and dried at room temperature. After adding a dyeing solution containing 1% acetic acid with 0.4% SRB (sulforhodamine B) thereto, the wells were kept at room temperature for 30 min, and washed with 1% acetic acid to remove remaining SRB. […] Also, the enhancement of the anticancer activity of paclitaxel against MCF7/Dox (resistant cancer cells) was measured by determining ED^PAC50/ED50, wherein ED^PAC50 is the value determined for the case of paclitaxel alone.",
  "data": [
    {"smiles": "COc1cc2c(cc1OC)CN(CCc1ccc(-n3nnc(-c4cc(OC)c(OC)cc4NC(=O)c4cnccn4)n3)cc1)CC2", "note": "[Example 12, pyrazine-2-carboxylic acid [2-(2-{4-[2-(6,7-dimethoxy-3,4-dihydro-1H-isoquinolin-2-yl)-ethyl]-phenyl}-2H-tetrazol-5-yl)-4,5-dimethoxy-phenyl]-amide]", "values": [
      {"measurement": "ED50^PAC/ED50", "value": 3.0}
    ]},
    {"smiles": "COc1cc2c(cc1OC)CN(CCc1ccc(-n3nnc(-c4cc(OC)c(OC)cc4NC(=O)c4ccccn4)n3)cc1)CC2", "note": "[Example 9, pyridine-2-carboxylic acid [2-(2-{4-[2-(6,7-dimethoxy-3,4-dihydro-1H-isoquinolin-2-yl)-ethyl]-phenyl}-2H-tetrazol-5-yl)-4,5-dimethoxy-phenyl]-amide]", "values": [
      {"measurement": "ED50^PAC/ED50", "value": 3.1}
    ]},
    {"smiles": "COc1cc2c(cc1OC)CN(CCc1ccc(-n3nnc(-c4cc(OC)c(OC)cc4NC(=O)c4ccc(F)cc4)n3)cc1)CC2", "note": "[Example 17, N-[2-(2-{4-[2-(6,7-dimethoxy-3,4-dihydro-1H-isoquinolin-2-yl)-ethyl]-phenyl}-2H-tetrazol-5-yl)-4,5-dimethoxy-phenyl]-4-fluoro-benzamide]", "values": [
      {"measurement": "ED50^PAC/ED50", "value": 4.0}
    ]},
    {"smiles": "COc1cc2c(cc1OC)CN(CCc1ccc(-n3nnc(-c4cc(OC)c(OC)cc4NC(=O)c4cnc5ccccc5n4)n3)cc1)CC2", "note": "[Example 8, quinoxaline-2-carboxylic acid [2-(2-{4-[2-(6,7-dimethoxy-3,4-dihydro-1H-isoquinolin-2-yl)-ethyl]-phenyl}-2H-tetrazol-5-yl)-4,5-dimethoxy-phenyl]-amide]", "values": [
      {"measurement": "ED50^PAC/ED50", "value": 22.0}
    ]},
    {"smiles": "COc1cc2c(cc1OC)CN(CCc1ccc(-n3nnc(-c4cc(OC)c(OC)cc4NC(=O)c4cccc5cccnc45)n3)cc1)CC2", "note": "[Example 4, quinoline-8-carboxylic acid [2-(2-{4-[2-(6,7-dimethoxy-3,4-dihydro-1H-isoquinolin-2-yl)-ethyl]-phenyl}-2H-tetrazol-5-yl)-4,5-dimethoxy-phenyl]-amide]", "values": [
      {"measurement": "ED50^PAC/ED50", "value": 4.3}
    ]},
    {"smiles": "COc1cc2c(cc1OC)CN(CCc1ccc(-n3nnc(-c4cc(F)c(F)cc4NC(=O)c4cnc5ccccc5c4)n3)cc1)CC2", "note": "[Example 28, quinoline-3-carboxylic acid [2-(2-{4-[2-(6,7-dimethoxy-3,4-dihydro-1H-isoquinolin-2-yl)-ethyl]-phenyl}-2H-tetrazol-5-yl)-4,5-difluoro-phenyl]-amide]", "values": [
      {"measurement": "ED50^PAC/ED50", "value": 19.9}
    ]},
    {"smiles": "COc1cc2c(cc1OC)CN(CCc1ccc(-n3nnc(-c4cc(OC)c(OC)cc4NC(=O)c4cc5ccccc5cn4)n3)cc1)CC2", "note": "[Example 3, isoquinoline-3-carboxylic acid [2-(2-{4-[2-(6,7-dimethoxy-3,4-dihydro-1H-isoquinolin-2-yl)-ethyl]-phenyl}-2H-tetrazol-5-yl)-4,5-dimethoxy-phenyl]-amide]", "values": [
      {"measurement": "ED50^PAC/ED50", "value": 3.5}
    ]},
    {"smiles": "COc1cc2c(cc1OC)CN(CCc1ccc(-n3nnc(-c4cc(OC)c(OC)cc4NC(=O)c4cccnc4)n3)cc1)CC2", "note": "[Example 10, N-[2-(2-{4-[2-(6,7-dimethoxy-3,4-dihydro-1H-isoquinolin-2-yl)-ethyl]-phenyl}-2H-tetrazol-5-yl)-4,5-dimethoxy-phenyl]-nicotinamide]", "values": [
      {"measurement": "ED50^PAC/ED50", "value": 3.0}
    ]},
    {"smiles": "COc1cc2c(cc1OC)CN(CCc1ccc(-n3nnc(-c4cc(OC)c(OC)cc4NC(=O)c4cc(=O)c5ccccc5o4)n3)cc1)CC2", "note": "[Example 21, 4-oxo-4H-chromen-2-carboxylic acid [2-(2-{4-[2-(6,7-dimethoxy-3,4-dihydro-1H-isoquinolin-2-yl)-ethyl]-phenyl}-2H-tetrazol-5-yl)-4,5-dimethoxy-phenyl]-amide]", "values": [
      {"measurement": "ED50^PAC/ED50", "value": 60.1}
    ]},
    {"smiles": "COc1cc2c(cc1OC)CN(CCc1ccc(-n3nnc(-c4cc(OC)c(OC)cc4NC(=O)c4ccc5ccccc5c4)n3)cc1)CC2", "note": "[Example 14, naphthalene-2-carboxylic acid [2-(2-{4-[2-(6,7-dimethoxy-3,4-dihydro-1H-isoquinolin-2-yl)-ethyl]-phenyl}-2H-tetrazol-5-yl)-4,5-dimethoxy-phenyl]-amide]", "values": [
      {"measurement": "ED50^PAC/ED50", "value": 2.6}
    ]},
    {"smiles": "COc1cc2c(cc1OC)CN(CCc1ccc(-n3nnc(-c4cc(OC)c(OC)cc4NC(=O)c4ccccc4)n3)cc1)CC2", "note": "[Example 13, N-[2-(2-{4-[2-(6,7-dimethoxy-3,4-dihydro-1H-isoquinolin-2-yl)-ethyl]-phenyl}-2H-tetrazol-5-yl)-4,5-dimethoxy-phenyl]-benzamide]", "values": [
      {"measurement": "ED50^PAC/ED50", "value": 3.4}
    ]},
    {"smiles": "COc1cc2c(cc1OC)CN(CCc1ccc(-n3nnc(-c4cc(OC)c(OC)cc4NC(=O)c4cnnc5ccccc45)n3)cc1)CC2", "note": "[Example 26, cinoline-4-carboxylic acid [2-(2-{4-[2-(6,7-dimethoxy-3,4-dihydro-1H-isoquinolin-2-yl)-ethyl]-phenyl}-2H-tetrazol-5-yl)-4,5-dimethoxy-phenyl]-amide]", "values": [
      {"measurement": "ED50^PAC/ED50", "value": 24.0}
    ]},
    {"smiles": "COc1cc2c(cc1OC)CN(CCc1ccc(-n3nnc(-c4cc(OC)c(OC)cc4NC(=O)c4ccccc4F)n3)cc1)CC2", "note": "[Example 15]", "values": [
      {"measurement": "ED50^PAC/ED50", "value": 4.1}
    ]},
    {"smiles": "COc1cc2c(cc1OC)CN(CCc1ccc(-n3nnc(-c4cc(OC)c(OC)cc4NC(=O)c4ccncc4)n3)cc1)CC2", "note": "[Example 11, N-[2-(2-{4-[2-(6,7-dimethoxy-3,4-dihydro-1H-isoquinolin-2-yl)-ethyl]-phenyl}-2H-tetrazol-5-yl)-4,5-dimethoxy-phenyl]-isonicotinamide]", "values": [
      {"measurement": "ED50^PAC/ED50", "value": 3.2}
    ]},
    {"smiles": "COc1cc2c(cc1OC)CN(CCc1ccc(-n3nnc(-c4cc(OC)c(OC)cc4NC(=O)c4cnc5ccccc5c4)n3)cc1)CC2", "note": "[Example 30]", "values": [
      {"measurement": "ED50^PAC/ED50", "value": 2.6}
    ]},
    {"smiles": "COc1cc2c(cc1OC)CN(CCc1ccc(-n3nnc(-c4cc(OC)c(OC)cc4NC(=O)c4cc(=O)c5cc(Br)ccc5o4)n3)cc1)CC2", "note": "[Example 25, 6-bromo-4-oxo-4H-chromene-2-carboxylic acid [2-(2-{4-[2-(6,7-dimethoxy-3,4-dihydro-1H-isoquinolin-2-yl)-ethyl]-phenyl}-2H-tetrazol-5-yl)-4,5-dimethoxy-phenyl]-amide]", "values": [
      {"measurement": "ED50^PAC/ED50", "value": 28.6}
    ]},
    {"smiles": "COc1cc2c(cc1OC)CN(CCc1ccc(-n3nnc(-c4cc(OC)c(OC)cc4NC(=O)c4ccsc4)n3)cc1)CC2", "note": "[Example 19, thiophene-3-carboxylic acid [2-(2-{4-[2-(6,7-dimethoxy-3,4-dihydro-1H-isoquinolin-2-yl)-ethyl]-phenyl}-2H-tetrazol-5-yl)-4,5-dimethoxy-phenyl]-amide]", "values": [
      {"measurement": "ED50^PAC/ED50", "value": 4.5}
    ]},
    {"smiles": "COc1cc2c(cc1OC)CN(CCc1ccc(-n3nnc(-c4cc(OC)c(OC)cc4NC(=O)c4ccc(F)c(F)c4)n3)cc1)CC2", "note": "[Example 18, N-[2-(2-{4-[2-(6,7-dimethoxy-3,4-dihydro-1H-isoquinolin-2-yl)-ethyl]-phenyl}-2H-tetrazol-5-yl)-4,5-dimethoxy-phenyl]-3,4-difluoro-benzamide]", "values": [
      {"measurement": "ED50^PAC/ED50", "value": 3.7}
    ]},
    {"smiles": "COc1cc2c(cc1OC)CN(CCc1ccc(-n3nnc(-c4cc(OC)c(OC)cc4NC(=O)C=Cc4cnc5ccccc5c4)n3)cc1)CC2", "note": "[Example 32, N-[2-(2-{4-[2-(6,7-dimethoxy-3,4-dihydro-1H-isoquinolin-2-yl)-ethyl]-phenyl}-2H-tetrazol-5-yl)-4,5-dimethoxy-phenyl]-3-quinolin-3-yl-acrylamide]", "values": [
      {"measurement": "ED50^PAC/ED50", "value": 19.2}
    ]},
    {"smiles": "COc1cc2c(cc1OC)CN(CCc1ccc(-n3nnc(-c4cc(OC)c(OC)cc4NC(=O)c4cc(=O)c5cc(C)ccc5o4)n3)cc1)CC2", "note": "[Example 22, 6-methyl-4-oxo-4H-chromene-2-carboxylic acid [2-(2-{4-[2-(6,7-dimethoxy-3,4-dihydro-1H-isoquinolin-2-yl)-ethyl]-phenyl}-2H-tetrazol-5-yl)-4,5-dimethoxy-phenyl]-amide]", "values": [
      {"measurement": "ED50^PAC/ED50", "value": 73.4}
    ]},
    {"smiles": "COc1cc2c(cc1OC)CN(CCSc1ccc(-n3nnc(-c4cc(OC)c(OC)cc4NC(=O)c4cnc5ccccc5c4)n3)cc1)CC2", "note": "[Example 29, quinoline-3-carboxylic acid [2-(2-{4-[2-(6,7-dimethoxy-3,4-dihydro-1H-isoquinolin-2-yl)-ethylsulfanyl]-phenyl}-2H-tetrazol-5-yl)-4,5-dimethoxy-phenyl]-amide]", "values": [
      {"measurement": "ED50^PAC/ED50", "value": 21.3}
    ]},
    {"smiles": "COc1cc2c(cc1OC)CN(CCc1ccc(-n3nnc(-c4cc(OC)c(OC)cc4NC(=O)c4nccc5ccccc45)n3)cc1)CC2", "note": "[Example 5, isoquinoline-1-carboxylic acid [2-(2-{4-[2-(6,7-dimethoxy-3,4-dihydro-1H-isoquinolin-2-yl)-ethyl]-phenyl}-2H-tetrazol-5-yl)-4,5-dimethoxy-phenyl]-amide]", "values": [
      {"measurement": "ED50^PAC/ED50", "value": 1.8}
    ]},
    {"smiles": "COc1cc2c(cc1OC)CN(CCc1ccc(-n3nnc(-c4cc(OC)c(OC)cc4NC(=O)c4cc(=O)c5cc(F)ccc5o4)n3)cc1)CC2", "note": "[Example 24, 6-fluoro-4-oxo-4H-chromene-2-carboxylic acid [2-(2-{4-[2-(6,7-dimethoxy-3,4-dihydro-1H-isoquinolin-2-yl)-ethyl]-phenyl}-2H-tetrazol-5-yl)-4,5-dimethoxy-phenyl]-amide]", "values": [
      {"measurement": "ED50^PAC/ED50", "value": 39.3}
    ]},
    {"smiles": "COc1ccc(CCN(C)CCc2ccc(-n3nnc(-c4cc(OC)c(OC)cc4NC(=O)c4cc(=O)c5ccccc5o4)n3)cc2)cc1OC", "note": "[Example 33, 4-oxo-4H-chromene-2-carboxylic acid (2-{2-[4-(2-{[2-(3,4-dimethoxy-phenyl)-ethyl]-methyl-amino}-ethyl)-phenyl]-2H-tetrazol-5-yl}-4,5-dimethoxy-phenyl)-amide]", "values": [
      {"measurement": "ED50^PAC/ED50", "value": 23.0}
    ]},
    {"smiles": "COc1cc2c(cc1OC)CN(CCc1ccc(-n3nnc(-c4cc(OC)c(OC)cc4NC(=O)c4ccc5ccccc5n4)n3)cc1)CC2", "note": "[Example 2, quinoline-2-carboxylic acid [2-(2-{4-[2-(6,7-dimethoxy-3,4-dihydro-1H-isoquinolin-2-yl)-ethyl]-phenyl}-2H-tetrazol-5-yl)-4,5-dimethoxy-phenyl]-amide]", "values": [
      {"measurement": "ED50^PAC/ED50", "value": 2.7}
    ]},
    {"smiles": "COc1cc2c(cc1OC)CN(CCc1ccc(-n3nnc(-c4cc(OC)c(OC)cc4NC(=O)c4cccc(F)c4)n3)cc1)CC2", "note": "[Example 16, N-[2-(2-{4-[2-(6,7-dimethoxy-3,4-dihydro-1H-isoquinolin-2-yl)-ethyl]-phenyl}-2H-tetrazol-5-yl)-4,5-dimethoxy-phenyl]-3-fluoro-benzamide]", "values": [
      {"measurement": "ED50^PAC/ED50", "value": 6.7}
    ]}
  ]
}
